The source of these data is patent US9145399B2, “Substituted bicyclic triazole derivatives as gamma secretase modulators” (Janssen Pharmaceuticals, Inc., priority 2010, dated 2015).

In data set [1] the test system is Aβtotal. Kind of data set: Screening for γ-secretase-modulating activity in SKNBE2 cells carrying APP 695 wild type: Aβtotal in cell supernatant (Alphalisa). Type of data set: cell-based. To be noted: overnight incubation. The essentials:
(§1)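 SKNBE2 cells expressing wild-type APP695 were incubated overnight at 37° C with test compound at several concentrations. Aβ42 and Aβtotal in supernatant were measured by AlphaLISA sandwich immunoassays. IC50 came from 4-parameter non-linear fits of percent of compound-free control versus log concentration.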

Data set [2] has as its system Aβtotal. Briefly: In vivo efficacy: Aβtotal in brain of non-transgenic mice after single oral dose (ELISA). Set-up: species or system mouse. To be noted: dose 30 mg/kg oral dosing, soluble brain fraction, animals sacrificed after 4 h, untreated animals (Ctrl) set at 100; for response vs control in vivo at 30 mg/kg: Mus musculus, read-out: Aβtotal (% vs Ctrl)_Mean. An excerpt:
(§2) To determine whether acute administration of an Aβ42 lowering agent would reduce Aβ42 levels in vivo, non-transgenic rodents, e.g. mice or rats were used. Animals treated with the Aβ42 lowering agent were examined and compared to those untreated or treated with vehicle and brain levels of soluble Aβ42 and total Aβ were quantitated by standard techniques, for example, using ELISA. Treatment periods varied from hours (h) to days and were adjusted based on the results of the Aβ42 lowering once a time course of onset of effect could be established.
(§3) A typical protocol for measuring Aβ42 lowering in vivo is shown but it is only one of many variations that could be used to optimize the levels of detectable Aβ. For example, Aβ42 lowering compounds were formulated in 20% of Captisol® (a sulfobutyl ether of β-cyclodextrin) in water or 20% hydroxypropyl β cyclodextrin. The Aβ42 lowering agents were administered as a single oral dose or by any acceptable route of administration to overnight fasted animals. After 4 h, the animals were sacrificed and Aβ42 levels were analysed.
(§4) Blood was collected by decapitation and exsanguinations in EDTA-treated collection tubes. Blood was centrifuged at 1900 g for 10 minutes (min) at 4° C. and the plasma recovered and flash frozen for later analysis. The brain was removed from the cranium and hindbrain. The cerebellum was removed and the left and right hemisphere were separated. The left hemisphere was stored at −18° C. for quantitative analysis of test compound levels. The right hemisphere was rinsed with phosphate-buffered saline (PBS) buffer and immediately frozen on dry ice and stored at −80° C. until homogenization for biochemical assays.
(§5) Mouse brains from non-transgenic animals were resuspended in 8 volumes of 0.4% DEA (diethylamine)/50 mM NaCl containing protease inhibitors (Roche-11873580001 or 04693159001) per gram of tissue, e.g. for 0.158 g brain, add 1.264 ml of 0.4% DEA. All samples were homogenized in the FastPrep-24 system (MP Biomedicals) using lysing matrix D (MPBio #6913-100) at 6 m/s for 20 seconds. Homogenates were centrifuged at 221.300×g for 50 min. The resulting high speed supernatants were then transferred to fresh eppendorf tubes. Nine parts of supernatant were neutralized with 1 part 0.5 M Tris-HCl pH 6.8 and used to quantify Aβtotal and Aβ42.
(§6) To quantify the amount of Aβtotal and Aβ42 in the soluble fraction of the brain homogenates, Enzyme-Linked-Immunosorbent-Assays were used. Briefly, the standards (a dilution of synthetic Aβ1-40 and Aβ1-42, Bachem) were prepared in 1.5 ml Eppendorf tube in Ultraculture, with final concentrations ranging from 10000 to 0.3 pg/ml. The samples and standards were co-incubated with HRPO-labelled N-terminal antibody for Aβ42 detection and with the biotinylated mid-domain antibody 4G8 for Aβtotal detection. 50 μl of conjugate/sample or conjugate/standards mixtures were then added to the antibody-coated plate (the capture antibodies selectively recognize the C-terminal end of Aβ42, antibody JRF/cAβ42/26, for Aβ42 detection and the N-terminus of Aβ, antibody JRF/rAβ/2, for Aβtotal detection). The plate was allowed to incubate overnight at 4° C. in order to allow formation of the antibody-amyloid complex. Following this incubation and subsequent wash steps the ELISA for Aβ42 quantification was finished by addition of Quanta Blu fluorogenic peroxidase substrate according to the manufacturer's instructions (Pierce Corp., Rockford, Il). A reading was performed after 10 to 15 min (excitation 320 nm/emission 420 nm).
For Aβtotal detection, a Streptavidine-Peroxidase-Conjugate was added, followed 60 min later by an additional wash step and addition of Quanta Blu fluorogenic peroxidase substrate according to the manufacturer's instructions (Pierce Corp., Rockford, Ill). A reading was performed after 10 to 15 min (excitation 320 nm/emission 420 nm). […]
(In general: In an ELISA, binding on a coated surface is turned into a signal by an enzyme label.)

Data set [3] deals with Aβ42. Briefly: In vivo efficacy: Aβ42 lowering in brain of non-transgenic mice after single oral dose (ELISA). Set-up: species or system mouse. The following applies: dose 30 mg/kg oral dosing, soluble brain fraction, animals sacrificed after 4 h, untreated animals (Ctrl) set at 100; for response vs control in vivo at 30 mg/kg: Mus musculus, read-out: Aβ42 (% vs Ctrl) _Mean.
Excerpt: as §2, §3, §4, §5, §6
In this model at least 20% Aβ42 lowering compared to untreated animals would be advantageous.
The results are shown in Table 4 (dose 30 mg/kg oral dosing) (value for untreated animals as control (Ctrl) was set at 100): […]

Data set [4] has as its system Aβ42. Briefly: Screening for γ-secretase-modulating activity in SKNBE2 cells carrying APP 695 wild type: Aβ42 in cell supernatant (Alphalisa). Type of data set: cell-based. The following applies: overnight incubation. The essentials:
as §1

Where [5] appears, read: Homo sapiens, SKNBE2, SKNBE2 cells carrying APP 695 wild type.
Where [6] appears, read: SKNBE2 cells carrying APP 695 wild type.

The term IC50 denotes the concentration needed to halve the response being measured. Low values mean greater potency in that assay, high ones weaker potency in that assay. What is called melting point is the temperature of the solid-liquid transition.

As to `COc1cc(Nc2nc3c(-c4ccccc4C(F)(F)F)cccn3n2)ccc1-n1cnc(C)n1` [Compound 3, N-[3-methoxy-4-(3-methyl-1H-1,2,4-triazol-1-yl)phenyl]-8-[2-(trifluoromethyl)phenyl]-[1,2,4]triazolo[1,5-a]pyridin-2-amine], the melting point worked out at 195.5 °C. Moreover, the IC50 in the data set with Aβtotal [1] (Homo sapiens) was over 10 µM. The response vs control in vivo at 30 mg/kg in the data set on Aβtotal [2] was determined as 95%. Besides, in the data set with Aβ42 [3], the response vs control in vivo at 30 mg/kg was determined as 75%. The same compound came in with an IC50 with Aβ42 [4] (setting [5]) of 0.019 µM.
As for `COc1cc(Nc2nc3n(n2)CCC[C@@H]3c2ccccc2Cl)ccc1-n1cnc(C)c1` [Compound 28, (8R)-8-(2-chlorophenyl)-5,6,7,8-tetrahydro-N-[3-methoxy-4-(4-methyl-1H-imidazol-1-yl)phenyl]-[1,2,4]triazolo[1,5-a]pyridin-2-amine], the melting point is 195 °C. In the data set with Aβtotal [1] (Homo sapiens), this compound registered an IC50 of 5.13 µM. For the same compound, the response vs control in vivo at 30 mg/kg with Aβtotal [2] was found to be 93%. In addition, in the data set on Aβ42 [3], the response vs control in vivo at 30 mg/kg is 81%. 0.016 µM corresponded to half-maximal inhibition in the data set on Aβ42 [4] (setting [5]) (IC50).
`COc1cc(Nc2nc3n(n2)CCC[C@H]3c2ccccc2Cl)ccc1-n1cnc(C)c1` [Compound 29, (8S)-8-(2-chlorophenyl)-5,6,7,8-tetrahydro-N-[3-methoxy-4-(4-methyl-1H-imidazol-1-yl)phenyl]-[1,2,4]triazolo[1,5-a]pyridin-2-amine] showed a melting point of 193.2 °C. Further, the IC50 with Aβtotal [1] (Homo sapiens) is over 10 µM. Also, the response vs control in vivo at 30 mg/kg in the data set on Aβtotal [2] is 98%. The response vs control in vivo at 30 mg/kg in the data set on Aβ42 [3] was 99%. This compound showed an IC50 with Aβ42 [4] (setting [5]) of 0.025 µM.
With `COc1cc(Nc2nc3n(n2)CCCC3c2ccccc2C(F)(F)F)ccc1-n1cnc(C)c1` (stereo not shown) [Compound 31, 5,6,7,8-tetrahydro-N-[3-methoxy-4-(4-methyl-1H-imidazol-1-yl)phenyl]-8-[2-(trifluoromethyl)phenyl]-[1,2,4]triazolo[1,5-a]pyridin-2-amine], the melting point turned out to be 187.9 °C. Besides, half-maximal inhibition with Aβtotal [1] (Homo sapiens) (IC50) required 5.75 µM. In addition, the response vs control in vivo at 30 mg/kg with Aβtotal [2] was 96%. Also, in the data set on Aβ42 [3], the response vs control in vivo at 30 mg/kg is 83%. In addition, in the data set on Aβ42 [4] (setting [5]), the IC50 was 0.013 µM.
Compound `Cc1cc(-c2ccc(Nc3nc4n(n3)CCCC4c3ccccc3Cl)cc2)ccn1` (stereo not shown) [Compound 41, 8-(2-chlorophenyl)-5,6,7,8-tetrahydro-N-[4-(2-methyl-4-pyridinyl)phenyl]-[1,2,4]triazolo[1,5-a]pyridin-2-amine] showed a melting point of 227.2 °C. Besides, the IC50 in the data set on Aβtotal [1] (Homo sapiens) is over 10 µM. Moreover, the response vs control in vivo at 30 mg/kg in the data set with Aβtotal [2] was determined as 102%. Besides, in the data set on Aβ42 [3], the response vs control in vivo at 30 mg/kg worked out at 54%. Besides, the midpoint of inhibition in the data set on Aβ42 [4] (setting [5]), the IC50, lay at 0.028 µM.
Compound `COc1cc(Nc2nc3n(n2)CCCC3c2ccccc2Cl)ccc1-c1ccnc(C)c1` (stereo not shown) [Compound 78] returned a melting point of 169 °C. This compound gave an IC50 with Aβtotal [1] of over 10 µM. For the same compound, the response vs control in vivo at 30 mg/kg in the data set on Aβtotal [2] stood at 103%. Also, in the data set on Aβ42 [3], the response vs control in vivo at 30 mg/kg was 46%. The same compound registered an IC50 with Aβ42 [4] (setting [6]) of 0.032 µM.
`Cc1cc(-c2ccc(Nc3nc4n(n3)CCCC4c3ccc(F)cc3F)cc2)ccn1` (stereo not shown) [Compound 81, 8-(2,4-difluorophenyl)-5,6,7,8-tetrahydro-N-[4-(2-methyl-4-pyridinyl)phenyl]-[1,2,4]triazolo[1,5-a]pyridin-2-amine] gave a melting point of 193.7 °C. Besides, the IC50 in the data set with Aβtotal [1] (Homo sapiens) is over 10 µM. Also, the response vs control in vivo at 30 mg/kg in the data set on Aβtotal [2] came to 84%. The response vs control in vivo at 30 mg/kg with Aβ42 [3] came to 41%. The IC50 in the data set with Aβ42 [4] (setting [5]) turned out to be 0.069 µM.
As to `COc1cc(Nc2nc3n(n2)CCCC3c2ccc(F)cc2F)ccc1-c1ccnc(C)c1` (stereo not shown) [Compound 82, 8-(2,4-difluorophenyl)-5,6,7,8-tetrahydro-N-[3-methoxy-4-(2-methyl-4-pyridinyl)phenyl]-[1,2,4]triazolo[1,5-a]pyridin-2-amine], the melting point is 192.7 °C. This compound also gave an IC50 with Aβtotal [1] (Homo sapiens) of over 10 µM. Besides, the response vs control in vivo at 30 mg/kg in the data set on Aβtotal [2] was 89%. For the same compound, in the data set with Aβ42 [3], the response vs control in vivo at 30 mg/kg turned out to be 47%. Moreover, in the data set on Aβ42 [4] (setting [5]), the IC50 stood at 0.039 µM.
`COc1cc(Nc2nc3n(n2)CCOC3c2ccccc2Cl)ccc1-c1ccnc(C)c1` (stereo not shown) [Compound 87, 8-(2-chlorophenyl)-5,6-dihydro-N-[3-methoxy-4-(2-methyl-4-pyridinyl)phenyl]-8H-[1,2,4]triazolo[5,1-c][1,4]oxazin-2-amine] showed a melting point of 181.3 °C. In addition, the IC50 with Aβtotal [1] (Homo sapiens) was over 10 µM. Also, the response vs control in vivo at 30 mg/kg with Aβtotal [2] amounted to 89%. Moreover, the response vs control in vivo at 30 mg/kg in the data set on Aβ42 [3] was found to be 48%. For the same compound, the IC50 in the data set with Aβ42 [4] (setting [5]) was 0.035 µM.
In turn, `Cc1cc(-c2ccc(Nc3nc4n(n3)CCCC4c3ccc(F)cc3C)cc2)ccn1` (stereo not shown) [Compound 90, 8-(4-fluoro-2-methylphenyl)-5,6,7,8-tetrahydro-N-[4-(2-methyl-4-pyridinyl)phenyl]-[1,2,4]triazolo[1,5-a]pyridin-2-amine] had a melting point of 153.9 °C. The compound further came in with an IC50 with Aβtotal [1] (Homo sapiens) of over 10 µM. In the data set on Aβtotal [2], the response vs control in vivo at 30 mg/kg came to 83%. Moreover, the response vs control in vivo at 30 mg/kg with Aβ42 [3] amounted to 38%. The compound further gave an IC50 with Aβ42 [4] (setting [5]) of 0.056 µM.
Take `COc1cc(Nc2nc3n(n2)CCCC3c2ccc(F)cc2C)ccc1-c1ccnc(C)c1` (stereo not shown) [Compound 91, 8-(4-fluoro-2-methylphenyl)-5,6,7,8-tetrahydro-N-[3-methoxy-4-(2-methyl-4-pyridinyl)phenyl]-[1,2,4]triazolo[1,5-a]pyridin-2-amine]: the melting point turned out to be 161.4 °C. For the same compound, the IC50 in the data set with Aβtotal [1] (Homo sapiens) came to 8.51 µM. In the data set with Aβtotal [2], the response vs control in vivo at 30 mg/kg was determined as 92%. In the data set with Aβ42 [3], the response vs control in vivo at 30 mg/kg was determined as 51%. The compound also yielded an IC50 in the data set with Aβ42 [4] (setting [5]) of 0.025 µM.
For the compound `COc1ccc(C2CCCn3nc(Nc4ccc(-c5ccnc(C)c5)cc4)nc32)cc1F.Cl.O` (stereo not shown) [Compound 105, 8-(3-fluoro-4-methoxyphenyl)-5,6,7,8-tetrahydro-N-[4-(2-methyl-4-pyridinyl)phenyl]-[1,2,4]triazolo[1,5-a]pyridin-2-amine.1.6HCl.2.4H2O], the IC50 is over 10 µM with Aβtotal [1] and 0.056 µM with Aβ42 [4] (setting [6]). For the same compound, the “Aβtotal (% vs Ctrl)_Mean” value with Aβtotal [2] is given as 99 % vs Ctrl. In addition, the “Aβ42 (% vs Ctrl) _Mean” value in the data set with Aβ42 [3] is 51 % vs Ctrl.
`COc1cc(F)cc(C2CCCn3nc(Nc4ccc(-c5ccnc(C)c5)cc4)nc32)c1` (stereo not shown) [Compound 185, 8-(3-fluoro-5-methoxyphenyl)-5,6,7,8-tetrahydro-N-[4-(2-methyl-4-pyridinyl)phenyl]-[1,2,4]triazolo[1,5-a]pyridin-2-amine] came in with a melting point of 175.1 °C. In the data set with Aβtotal [1] (Homo sapiens), this compound returned an IC50 of over 10 µM. The response vs control in vivo at 30 mg/kg with Aβtotal [2] is 96%. In the data set with Aβ42 [3], the response vs control in vivo at 30 mg/kg was determined as 52%. Further, the midpoint of inhibition in the data set with Aβ42 [4] (setting [5]), the IC50, lay at 0.028 µM.
